Reference: patent US6531305B1, “Sperm associated protein kinase polypeptides, corresponding nucleic acids, and methods of use” (University of Massachusetts, priority 1998, dated 2003)

How the values were obtained:
Experiment in all cases: protein kinase blot: kinases renatured on the blot, labeling with [γ-32P]ATP
Format in all cases: biochemical
porcine C = porcine C (Sus scrofa, UniProt P36887)
Protocol: (§1) Ejaculated sperm were -collected and washed and demembranated as described in San Agustin et al., Cell Motl. Cytoskel., 24:264-73, 1993. Samples of demembranated sperm were dissolved in SDS-PAGE sample buffer (10% glycerol, 3% SDS, 0.03% bromphenol blue, 50 mM DTT, 62.5 mM Tris-HCl, pH 6.8), and then electrophoresed in a 1.5-mm thick gradient gel (5-15%, 12×14 cm). Protein kinases were renatured on the blot and incubated in the presence of [γ−^32P]ATP using a protocol adapted from Ferrell and Martin, Methods Enzymol., 200:430-35, 1991 and described in San Austin et al., Methods Cell Biol., 47:135-40, 1995. Under these condition, bound kinases phosphorylated themselves or the blocking reagent. In some experiments, 1% poly(Glu,Tyr) 4:1, a tyrosine kinase substrate, was used as blocking solution in place of 5% BSA. […] Two prominent bands at ˜Mr 40,000 and 39,000 migrated slightly faster than porcine C (41 kDa). To determine if either of these was Cs, the incubation with [γ−^32P]ATP was carried out in the presence of PKI(5-24), a potent inhibitor of C, including ram Cs, activity. […] Labeling of the other bands was not affected by PKI(5-24).

[1] = molecular target: T1, ~Mr 40,000 band from sperm (Cs) (Ovis aries, UniProt Q9MZD9); settings: demembranated ram sperm
T1 construct: Samples of demembranated sperm were dissolved in SDS-PAGE sample buffer; from tissue; host or cells: ejaculated, demembranated ram sperm
Protocol: as §1

[2] = tested on: other putative kinase bands of demembranated sperm; settings: demembranated ram sperm
Protocol: as §1

## PKI(5-24)
Porcine C
  labeling of porcine C with [γ-32P]ATP in the presence of inhibitor: completely and specifically blocked
[1]
  labeling of the ~Mr 40,000 band from sperm with [γ-32P]ATP in the presence of inhibitor: completely and specifically blocked
[2]
  labeling of the other bands with [γ-32P]ATP in the presence of inhibitor: not affected
